Source: PubChem BioAssay (NCI)
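Exposure lasted 48 hours, with cells grown in 96-well plates and compounds tested at five concentrations. GI50 is the concentration that inhibits growth by half. TGI denotes the concentration required for complete inhibition of growth.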

Experiments:
Assay in all cases: NCI anticancer screen, dose series, 48 h; in the data active means GI50 below about 0.43 µM; inactive means the rest
786-0 renal = tested on: 786-0 renal
A498 renal = tested on: A498 renal
A549 NSCLC = tested on: A549 NSCLC
ACHN renal = tested on: ACHN renal
BT-549 breast = tested on: BT-549 breast
CAKI-1 renal = tested on: CAKI-1 renal
CCRF-CEM leukemia = tested on: CCRF-CEM leukemia
COLO 205 colon = tested on: COLO 205 colon
DU-145 prostate = tested on: DU-145 prostate
EKVX NSCLC = tested on: EKVX NSCLC
HCC-2998 colon = tested on: HCC-2998 colon
HCT-116 colon = tested on: HCT-116 colon
HCT-15 colon = tested on: HCT-15 colon
HL-60(TB) leukemia = tested on: HL-60(TB) leukemia
HOP-62 NSCLC = tested on: HOP-62 NSCLC
HOP-92 NSCLC = tested on: HOP-92 NSCLC
HS 578T breast = tested on: HS 578T breast
HT29 colon = tested on: HT29 colon
IGROV1 ovarian = tested on: IGROV1 ovarian
K-562 leukemia = tested on: K-562 leukemia
KM12 colon = tested on: KM12 colon
LOX IMVI melanoma = tested on: LOX IMVI melanoma
M14 melanoma = tested on: M14 melanoma
MALME-3M melanoma = tested on: MALME-3M melanoma
MCF7 breast = tested on: MCF7 breast
MDA-MB-231 breast = tested on: MDA-MB-231 breast
MDA-MB-435 = tested on: MDA-MB-435
MOLT-4 leukemia = tested on: MOLT-4 leukemia
NCI-H226 lung = tested on: NCI-H226 lung

Cn1ccnc1C(=O)/C=C/c1ccc(NC(=O)c2ccc(F)cc2)cc1
> 33.3 µM: TGI (786-0 renal) | TGI (A549 NSCLC) | TGI (CAKI-1 renal) | TGI (CCRF-CEM leukemia) | TGI (DU-145 prostate) | TGI (EKVX NSCLC) | TGI (HCC-2998 colon) | TGI (HOP-92 NSCLC) | TGI (HS 578T breast) | TGI (HT29 colon) | TGI (IGROV1 ovarian) | TGI (K-562 leukemia) | TGI (M14 melanoma) | TGI (MALME-3M melanoma) | TGI (MCF7 breast) | TGI (MDA-MB-231 breast) | TGI (MDA-MB-435) | TGI (MOLT-4 leukemia)
12.9 µM: TGI (HCT-116 colon)
24.7 µM: TGI (BT-549 breast)
17.8 µM: TGI (COLO 205 colon)
inactive: GI50 (786-0 renal) 6.82 µM | GI50 (A498 renal) 5.68 µM | GI50 (A549 NSCLC) 6.75 µM | GI50 (ACHN renal) 4.85 µM | GI50 (BT-549 breast) 1.53 µM | GI50 (CAKI-1 renal) 1.63 µM | GI50 (CCRF-CEM leukemia) 1.46 µM | GI50 (COLO 205 colon) 3.39 µM | GI50 (DU-145 prostate) 1.33 µM | GI50 (EKVX NSCLC) 6.27 µM | GI50 (HCC-2998 colon) 6.99 µM | GI50 (HCT-116 colon) 1.47 µM | GI50 (HCT-15 colon) 1.38 µM | GI50 (HL-60(TB) leukemia) 2.9 µM | GI50 (HOP-62 NSCLC) 5.39 µM | GI50 (HOP-92 NSCLC) 8.15 µM | GI50 (HS 578T breast) 7.06 µM | GI50 (HT29 colon) 2.22 µM | GI50 (IGROV1 ovarian) 3.72 µM | GI50 (K-562 leukemia) 1.1 µM | GI50 (KM12 colon) 1.22 µM | GI50 (LOX IMVI melanoma) 1.31 µM | GI50 (M14 melanoma) 8.52 µM | GI50 (MALME-3M melanoma) 18.1 µM | GI50 (MCF7 breast) 1.64 µM | GI50 (MDA-MB-231 breast) 6.54 µM | GI50 (MDA-MB-435) 3.84 µM | GI50 (MOLT-4 leukemia) 6.36 µM | GI50 (NCI-H226 lung) 4.76 µM
5.55 µM: TGI (LOX IMVI melanoma)
11.8 µM: TGI (ACHN renal)
17.1 µM: TGI (A498 renal)
10.9 µM: TGI (KM12 colon)
26.8 µM: TGI (HOP-62 NSCLC)
31.8 µM: TGI (HL-60(TB) leukemia)
12.7 µM: TGI (HCT-15 colon)
